Source: patent US7528205B2, “Photo radical generator, photo sensitive resin composition and article” (Dai Nippon Printing Co., Ltd., priority 2003, dated 2009)
Where two headings read alike, the source gives them in different places.

Experiments:
[1] = Evaluation 1 of curability (coating layer with trifunctional acrylate, UV exposure, no hydrogen donor); conditions: for Reaction rate (decrement of double bond): nitrogen; for Compatibility with M305: imide part/double bond 1/50
Method: (§1) Using a trifunctional acrylate (product name; M-305, manufactured by Toagosei Co., Ltd.) as polyfunctional monomers, the compounds 1 to 14, the comparative compounds 2 and 3 and a photoradical generator Irgacure 907 (product name; manufactured by Ciba Specialty Chemicals) were mixed with each polyfunctional monomer to prepare each THF solution of each photoradical generator.
(§2) The mixing was performed so that a ratio of the photoradical generator to the polyfunctional monomer is such that number of imide part of each of the compounds 1 to 14 and the comparative compounds 2 and 3 with respect to number of double bond of the polyfunctional monomer is 1/50 (number of imide part/number of polyfunctional monomer) or, in the case of Irgacure, number of the molecule with respect to number of double bond of the polyfunctional monomer is 1/50 (number of Irgacure 907/number of polyfunctional monomer).
(§3) Each solution was applied by spin coating to a glass substrate on which chromium was sputtered to obtain coating layers. Also, a layer without initiator component or comparative compounds and only containing trifunctional acrylate was formed as a blank.
(§4) A decrement of the peak at 810 cm^−1 was recorded with time by using an infrared spectrometer (product name: FTS6000; manufactured by BIO RAD) while exposing the above coating layer to ultraviolet rays, to confirm the degree of the disappearance of a double bond. The atmosphere around the sample during measurement was replaced with nitrogen. As the UV exposure apparatus, UV Spot Cure SP-III type (standard reflecting mirror type) manufactured by Ushio Inc. was used and as the UV lamp, USH-255BY (manufactured by Ushio Inc.) was used.

[2] = Evaluation of transparency (transmittance of cured coating layer); type: physicochemical
Method: Using a trifunctional acrylate (product name; M305, manufactured by Toagosei Co., Ltd.) as polyfunctional monomers, each of the compound 1, a combination of the compound 1 and triethanolamine of the same number of mol and a photoradical generator Irgacure 907 (Irg907) were mixed to prepare each THF solution in the same ratio as the Evaluation of curability. Each solution was applied by spin coating to a glass substrate and heated on a 50° C. hot plate for one minute. Then, the substrate was exposed to light from a high pressure mercury lamp at an intensity of 2,000 mJ/cm^2 based on h-rays by using a hand-operated exposure apparatus (MA-1200, manufactured by Dainippon Screen Mfg. Co., Ltd.), to obtain a coating layer having a thickness of 4.2±0.05 μm. The transmittance of each coating layer was measured by a spectrometer (UV-2550 (PC)S GLP; manufactured by Shimadzu Corporation).

[3] = Evaluation of heat resistance (thermogravimetry, 5% reduction in weight temperature); type: physicochemical; conditions: for 5% heat decomposition temperature: temperature rise rate 10° C./min, nitrogen atmosphere
Method: Herein, the 5% reduction in weight temperature means a temperature at which the weight of a sample is reduced […] when a decrement of weight is measured using a thermogravimetric analyzer according to the same method as in the examples of the present invention as will be explained later. Similarly, the 10% reduction in weight temperature means a temperature at which the weight of a sample is reduced […].
Using a differential type differential thermal balance (product name: TG8120; manufactured by Rigaku Corporation), the 5% reduction in weight temperature of each of the compounds 1 to 15 was measured at a temperature rise rate of 10° C./min in a nitrogen atmosphere. As comparative examples, the comparative compounds 2 and 3 and a self-cleavage type photoradical generator Irgacure 907 (trademark; manufactured by Ciba Specialty Chemicals) were similarly measured.

Solubility test = type: physicochemical; conditions: for solubility at 3 h: organic solvent or mixture, thermodynamic from solid
Method: As for the compound 1 and the comparative compound 3, a solubility test was performed respectively. Each sample was added to each solvent or monomer so as to be 0.5 mol/L at 20° C. After radiating ultrasonic wave for 3 hours, one with a precipitate was concluded as “0” and one without a precipitate was concluded as “x”.

[4] = Evaluation of ultraviolet absorption; type: physicochemical; conditions: for ultraviolet absorption bottom edge / ultraviolet absorption maximum wavelength: acetonitrile solution, 1.0×10^−5 mol/L
Method: Using an acetonitrile solution containing 1.0×10^−5 mol/L of each of the compounds 1 and 15, each ultraviolet absorption spectrum was measured.

[5] = Evaluation 2 of curability (triethanolamine added as hydrogen donor)
Method: as §1, §2, §3, §4
In order to confirm whether or not the seven-membered ring imide structure-containing group was a hydrogen-drawing type radical generator, triethanolamine was added to THF solutions containing each of the compositions 1 to 14 used in the aforementioned Evaluation 1 of curability and trifunctional acrylate M305, coating layers were formed in the same manner as in the aforementioned Evaluation 1 of curability, and evaluated similarly. As comparative examples, each of the comparative compounds 1 and 3 was used.

[6] = 0.5 mol/L at 20° C., ultrasonic wave 3 hours

## COCCn1c(=O)c2ccccc2c2ccccc2c1=O [Compound 1]
[1]; Exposure 50 mJ
  Reaction rate (decrement of double bond): 0.3%
[1]; Exposure 100 mJ
  Reaction rate (decrement of double bond): 0.5%
[1]; Exposure 400 mJ
  Reaction rate (decrement of double bond): 1.1%
[1]
  Compatibility with M305: ∘
[2]; M305 coating layer 4.2±0.05 μm, 2,000 mJ/cm^2, compared to Irg907
  transmittance of cured layer: high in transmittance with respect to the light of 410 nm or less
[2]; triethanolamine of the same number of mol added, M305 coating layer 4.2±0.05 μm
  transmittance of cured layer: almost same in transmittance as in the case of only the compound 1
[3]
  5% heat decomposition temperature: 224 °C
Solubility test
  solubility, comparison in words: superior in solubility to the comparative compound 3
Solubility test; [6]
  Solubility in Acetone: ∘
  Solubility in Chloroform: ∘
  Solubility in Dimethylformamide: ∘
  Solubility in Ethyl acetate: ∘
  Solubility in Ethyl lactate: ∘
  Solubility in Methyl acrylate: ∘
  Solubility in Pentaerythritol triacrylate (M305): ∘
  Solubility in Propylene glycol monoethyl ether acetate: ∘
  Solubility in Tetrahydrofuran: ∘
[4]
  ultraviolet absorption bottom edge: about 320 nm
  ultraviolet absorption maximum wavelength: about 240 nm
[5]
  Compatibility with M305: ∘
[5]; Exposure 50 mJ
  Reaction rate (decrement of double bond): 17.3%
[5]; Exposure 100 mJ
  Reaction rate (decrement of double bond): 23.6%
[5]; Exposure 400 mJ
  Reaction rate (decrement of double bond): 36.6%

## COCCn1c(=O)c2cc([N+](=O)[O-])ccc2c2ccc([N+](=O)[O-])cc2c1=O [Compound 15]
[3]
  improvement of heat decomposition temperature in comparison with the compound 1: ≥ 50 °C
  5% heat decomposition temperature: 280 °C
[4]
  absorption at 365 nm (emitting wavelength of high pressure mercury lamp): has absorption at a wavelength of 365 nm
  ultraviolet absorption bottom edge: about 320 nm
  ultraviolet absorption maximum wavelength: about 240 nm

## COCCN1C(=O)c2cccc3cccc(c23)C1=O [compound 3, reference compound]
[1]; Exposure 50 mJ
  Reaction rate (decrement of double bond): 1.0%
[1]; Exposure 100 mJ
  Reaction rate (decrement of double bond): 2.5%
[1]; Exposure 400 mJ
  Reaction rate (decrement of double bond): 26.6%
[1]
  Compatibility with M305: ∘
[3]
  5% heat decomposition temperature: 229 °C
Solubility test; [6]
  Solubility in Acetone: ∘
  Solubility in Chloroform: ∘
  Solubility in Dimethylformamide: ∘
  Solubility in Tetrahydrofuran: ∘
Solubility test; ethyl acetate, 0.5 mol/L at 20° C., ultrasonic wave 3 hours, read-out: Solubility in Ethyl acetate
  solubility at 3 h: < 500 mM
Solubility test; ethyl lactate, 0.5 mol/L at 20° C., ultrasonic wave 3 hours, read-out: Solubility in Ethyl lactate
  solubility at 3 h: < 500 mM
Solubility test; methyl acrylate, 0.5 mol/L at 20° C., ultrasonic wave 3 hours, read-out: Solubility in Methyl acrylate
  solubility at 3 h: < 500 mM
Solubility test; pentaerythritol triacrylate (M305), 0.5 mol/L at 20° C., ultrasonic wave 3 hours, read-out: Solubility in Pentaerythritol triacrylate (M305)
  solubility at 3 h: < 500 mM
Solubility test; propylene glycol monoethyl ether acetate, 0.5 mol/L at 20° C., ultrasonic wave 3 hours, read-out: Solubility in Propylene glycol monoethyl ether acetate
  solubility at 3 h: < 500 mM
[5]
  Compatibility with M305: ∘
[5]; Exposure 50 mJ
  Reaction rate (decrement of double bond): 3.3%
[5]; Exposure 100 mJ
  Reaction rate (decrement of double bond): 5.4%
[5]; Exposure 400 mJ
  Reaction rate (decrement of double bond): 11.1%
